The source made the active and inactive calls.
Columns and labels:
[1] = loss of viability in HepG2 cells – cell-based, CellTiter-Glo, cherry-picked, cytotoxicity control for Shn3 inhibitor project, dose response (AID 624134); assay type: functional
[2] = non-specific 3'UTR reporter inhibition in Clone20-Shn3RL – cell-based, Renilla luciferase, cherry-picked, counter-screen for Shn3 inhibitor project, dose response (AID 624133); assay type: functional
[3] = EF1alpha-driven Renilla reporter with control 3'UTR suppression – Clone20-Shn3RL cells, dual-Glo, cherry-pick, set 2, counter-screen for Shn3 3'UTR targeting project, dose response (AID 720724); assay type: functional, cell-based; settings: Dual-Go Shn3RL
[4] = Shn3 3'UTR reporter signal decrease – cell-based, Clone20 osteoblasts, firefly luciferase, cherry-pick, set 2, Schnurri-3 inhibitor project, dose response (AID 720490); assay type: functional;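 further: actives lower the luminescence signal as inhibitors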
[5] = reduction of Shn3 3'UTR-driven luciferase in osteoblasts – cell-based, Clone20 osteoblasts, firefly luciferase, cherry-picked, dose response (AID 624132); assay type: functional;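 further: firefly luciferase luminescence from reporter carrying the Shn3 3'UTR in osteoblasts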
[6] = biological target: T1, Probable nicotinate-nucleotide adenylyltransferase (Staphylococcus aureus (strain N315), UniProt P65502); assay type: functional, Staphylococcus aureus subsp. aureus N315;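 on IC50 Mean: confirmatory dose-response retesting of NadD inhibitor hits first found in an ultra-high-throughput screen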
T1 sequence (P65502 whole entry): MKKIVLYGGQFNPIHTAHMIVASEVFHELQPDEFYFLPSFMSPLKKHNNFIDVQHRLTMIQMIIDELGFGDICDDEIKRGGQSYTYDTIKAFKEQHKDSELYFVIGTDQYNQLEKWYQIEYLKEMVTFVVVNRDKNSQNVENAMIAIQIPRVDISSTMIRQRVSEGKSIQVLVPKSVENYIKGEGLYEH

[7] = biological target: T1, Probable nicotinate-nucleotide adenylyltransferase; assay type: functional, Staphylococcus aureus subsp. aureus N315; settings: read-out: IC50_Mean
Kallikrein-7 = Kallikrein-7 (Homo sapiens, UniProt P49862); assay: Fluorescence Intensity-based biochemical primary high throughput dose response assay to identify activators of kallikrein-7 (K7) zymogen.
Sequence of Kallikrein-7 (P49862 whole entry): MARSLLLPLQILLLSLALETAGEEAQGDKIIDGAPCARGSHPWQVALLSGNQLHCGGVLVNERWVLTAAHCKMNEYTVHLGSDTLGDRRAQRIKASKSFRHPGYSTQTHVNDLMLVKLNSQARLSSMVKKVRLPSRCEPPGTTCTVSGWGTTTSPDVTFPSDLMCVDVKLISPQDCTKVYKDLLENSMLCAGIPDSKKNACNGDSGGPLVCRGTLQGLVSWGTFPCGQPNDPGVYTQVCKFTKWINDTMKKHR

[8] = bead-based luminescence quenchers, dual-tagged ARNT – biochemical, AlphaScreen, cherry-pick, artefact control for ARNT-TACC3 interaction inhibitor project, dose response (AID 651705); assay type: functional;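 further: AlphaScreen bead proximity signal that flags compounds interfering with the detection technology; potency reflects signal decrease which marks the compound as an assay artifact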
[9] = Luminescence Cell-Based Dose Retest to Confirm Inhibitors of Cancer Stem Cells. [Related pubchem assays (depositor defined):AID2717, AID2721]; assay type: functional; settings: Homo sapiens
INS1 = assay: INS-1E survival protection against cytokine death – cell-based, luminescence, retest, dose response (AID 449756); assay type: functional; settings: Rattus norvegicus;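 further: cell death triggered by IL-1 beta plus TNF-alpha plus IFN-gamma mixture; protective hits raise ATP signal compared with cytokine alone wells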
[10] = biological target: COUP transcription factor 2 (Homo sapiens, UniProt P24468); assay: Luminescence-based cell-based high throughput dose response assay to identify inhibitors of COUP-TFII (NR2F2).; assay type: functional;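 further: HEK293 cells transiently cotransfected with COUP-TFII expression vector and reporter; luciferase reporter luminescence driven by COUP-TFII from the pX2-168 reporter plasmid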
Sequence of COUP transcription factor 2 (P24468 whole entry): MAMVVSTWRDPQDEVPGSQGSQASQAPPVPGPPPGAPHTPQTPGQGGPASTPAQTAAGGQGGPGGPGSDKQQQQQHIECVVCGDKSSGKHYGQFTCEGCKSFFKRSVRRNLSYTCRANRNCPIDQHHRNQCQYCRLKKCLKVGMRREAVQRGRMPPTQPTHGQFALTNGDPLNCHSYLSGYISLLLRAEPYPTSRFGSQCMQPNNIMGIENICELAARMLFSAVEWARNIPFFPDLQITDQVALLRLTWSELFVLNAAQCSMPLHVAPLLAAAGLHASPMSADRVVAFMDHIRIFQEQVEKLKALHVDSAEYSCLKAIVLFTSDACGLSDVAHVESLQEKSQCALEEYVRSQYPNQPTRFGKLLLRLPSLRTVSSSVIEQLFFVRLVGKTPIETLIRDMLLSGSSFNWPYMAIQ

Streptococcus = assay: GAS UMAA2166 growth inhibition – luminescence, BacTiterGlo, counter-screen for streptokinase expression inhibitor project, dose response (AID 1915); assay type: functional, organism-based;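 further: potency for reduction of bacterial viability or growth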
[11] = system: Streptococcus sp. 'group A'; assay: Streptococcus pyogenes SK(-)GAS viability under kanamycin – luminescence, BacTiterGlo, confirmation, counter-screen for streptokinase expression inhibitor project, dose response (AID 1900); assay type: functional, organism-based
[12] = off-target signal loss in HeLa-CEM21 co-culture – HeLa F-luc CTL cells, cherry-picked, counter-screen for HIV-1 Env fusion inhibitor project, dose response (AID 652040); assay type: functional, cell-based;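 further: potency for signal decrease marking cytotoxic or nonspecific inhibition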
[13] = blockers of HIV-1 ZM109 envelope-driven cell-cell fusion – HeLa effector, CEM target cells, luciferase, cherry-pick, dose response (AID 652058); assay type: functional, cell-based;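 further: luciferase signal from HIV-1 Env mediated cell-cell fusion of effector and target cells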
[14] = alpha-synuclein stem-loop luciferase translation blockers – H4 neuroglioma cells, luminescence, confirmation (AID 1988); assay type: functional, cell-based
[15] = luciferase reporter signal suppression in cells – H4 neuroglioma cells, luminescence, dose response (AID 1990); assay type: functional, cell-based
Phospholipase A2 = Phospholipase A2 (Homo sapiens, UniProt P04054); assay type: functional;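 further: confirmatory dose-response counterscreen on phospholipase A2, testing hits that came from an ultra-high-throughput screen for ATG4B inhibitors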
Sequence of Phospholipase A2 (P04054 whole entry): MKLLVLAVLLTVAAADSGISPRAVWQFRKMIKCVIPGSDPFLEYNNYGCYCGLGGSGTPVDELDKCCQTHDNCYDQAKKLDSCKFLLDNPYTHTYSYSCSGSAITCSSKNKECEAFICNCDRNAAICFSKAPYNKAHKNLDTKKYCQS

HEK293 = assay: EBV LMP1 TES2 canonical NF-kB signalling blockers – cell-based, HEK293, luciferase, cherry-pick, dose response (AID 588343); assay type: functional; settings: Homo sapiens
Cysteine protease ATG4B = biological target: T2, Cysteine protease ATG4B (Homo sapiens, UniProt Q9Y4P1); assay type: functional;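 further: Fluorescence-based dose-response confirmation assay measuring inhibition of ATG4B activity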
T2 sequence (Q9Y4P1 whole entry): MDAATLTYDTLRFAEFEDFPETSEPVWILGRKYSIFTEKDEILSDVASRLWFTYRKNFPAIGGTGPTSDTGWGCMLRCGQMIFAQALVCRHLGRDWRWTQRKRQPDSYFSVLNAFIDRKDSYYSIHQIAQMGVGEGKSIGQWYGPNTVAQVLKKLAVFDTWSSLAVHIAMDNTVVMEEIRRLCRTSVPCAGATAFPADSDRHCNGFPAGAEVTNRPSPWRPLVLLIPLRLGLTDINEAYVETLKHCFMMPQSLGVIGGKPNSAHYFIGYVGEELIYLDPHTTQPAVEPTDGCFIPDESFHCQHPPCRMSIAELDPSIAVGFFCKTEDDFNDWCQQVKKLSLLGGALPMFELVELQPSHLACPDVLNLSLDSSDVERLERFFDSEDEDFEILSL

Interleukin-8 = Interleukin-8 (Homo sapiens, UniProt P10145); assay: Dose Response confirmation of uHTS small molecule hits for cystic fibrosis induced NFkb Inhibitors in a PAF-induced IL8 counterscreen.; assay type: functional; settings: read-out: IC50_Mean
Sequence of Interleukin-8 (P10145 whole entry): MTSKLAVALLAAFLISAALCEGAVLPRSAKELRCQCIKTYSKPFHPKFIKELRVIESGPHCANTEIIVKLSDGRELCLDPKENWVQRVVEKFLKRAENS

[16] = Luminescence Cell-Based Dose Response HTS to Identify Inhibitors of 5'UTR Stem-Loop Driven Prion Protein mRNA Translation in H4 Neuroglioblastoma Cells. [Related pubchem assays: 1827 (Project Summary), 1813 (Primary HTS)]; assay type: functional
[17] = HIV-1 AD8 envelope cell-cell fusion blockers – cherry-pick, dose response (AID 652062); assay type: functional, cell-based;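 further: luciferase signal from cell-cell fusion driven by HIV-1 clade B AD8 Env; potency is for inhibitors of fusion seen as a drop in luminescence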
[18] = blockers of HIV-1 envelope-mediated cell-cell fusion – cherry-pick, dose response (AID 652057); assay type: functional, cell-based
[19] = biological target: T3, Oxysterols receptor LXR-beta (Homo sapiens, UniProt P55055); assay type: functional, cell-based;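 further: agonist activity at LXR measured by a cell-based luminescence readout across a dose range, run as a counterscreen for daf-12 agonists; HEK293 cells with Gal4-LXR fusion and GAL4-driven luciferase reporter; potency for activation of Gal4-LXR reporter so compounds are agonists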
T3 sequence (P55055 whole entry): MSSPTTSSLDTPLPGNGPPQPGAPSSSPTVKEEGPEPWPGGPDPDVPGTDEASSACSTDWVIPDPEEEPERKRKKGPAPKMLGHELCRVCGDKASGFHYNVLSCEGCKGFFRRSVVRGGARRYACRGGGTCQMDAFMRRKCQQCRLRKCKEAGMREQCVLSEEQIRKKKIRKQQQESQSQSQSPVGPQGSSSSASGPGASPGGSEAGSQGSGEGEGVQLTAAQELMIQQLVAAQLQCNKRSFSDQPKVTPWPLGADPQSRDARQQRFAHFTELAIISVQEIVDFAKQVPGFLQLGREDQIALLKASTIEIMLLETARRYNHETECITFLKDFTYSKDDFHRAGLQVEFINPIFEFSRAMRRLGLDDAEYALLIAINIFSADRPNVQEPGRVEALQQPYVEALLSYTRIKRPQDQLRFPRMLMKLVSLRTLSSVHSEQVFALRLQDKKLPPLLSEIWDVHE

[20] = biological target: DNA repair and recombination protein RAD54-like (Homo sapiens, UniProt Q92698); assay: RAD54 Holliday junction migration blockers – biochemical, fluorescence, cherry-picked samples, dose series, confirmation (AID 651657); assay type: functional
Sequence of DNA repair and recombination protein RAD54-like (Q92698 whole entry): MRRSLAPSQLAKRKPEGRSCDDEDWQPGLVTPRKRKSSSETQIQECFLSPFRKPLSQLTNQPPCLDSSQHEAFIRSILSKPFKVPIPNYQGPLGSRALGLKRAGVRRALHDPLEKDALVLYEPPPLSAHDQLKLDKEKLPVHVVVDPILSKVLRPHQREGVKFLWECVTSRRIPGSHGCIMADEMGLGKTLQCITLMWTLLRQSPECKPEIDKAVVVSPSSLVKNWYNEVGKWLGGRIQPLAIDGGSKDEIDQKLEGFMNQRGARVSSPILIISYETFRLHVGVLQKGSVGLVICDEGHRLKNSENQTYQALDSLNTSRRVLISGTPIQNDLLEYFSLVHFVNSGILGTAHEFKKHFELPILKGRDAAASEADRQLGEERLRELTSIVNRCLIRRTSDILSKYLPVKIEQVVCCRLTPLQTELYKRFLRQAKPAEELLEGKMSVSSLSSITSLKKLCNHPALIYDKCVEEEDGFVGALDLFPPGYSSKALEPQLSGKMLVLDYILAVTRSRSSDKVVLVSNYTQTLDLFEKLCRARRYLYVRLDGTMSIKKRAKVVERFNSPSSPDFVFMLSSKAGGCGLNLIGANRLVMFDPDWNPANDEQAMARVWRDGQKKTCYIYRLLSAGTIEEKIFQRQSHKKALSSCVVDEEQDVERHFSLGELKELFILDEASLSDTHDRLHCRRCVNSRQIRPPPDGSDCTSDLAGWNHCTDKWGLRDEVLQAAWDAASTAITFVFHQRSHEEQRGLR

[21] = potency of ADAM10 substrate cleavage blockers – biochemical, QFRET, dose response (AID 743254);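 further: ADAM10 enzyme with the DM2 quenched FRET peptide as substrate; EDANS fluorescence gain as the protease cuts the substrate; inhibitor potency against ADAM10 proteolytic activity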
[22] = biological target: Disintegrin and metalloproteinase domain-containing protein 17 (Homo sapiens, UniProt P78536); assay: inhibition of ADAM17 substrate cleavage – biochemical, quenched FRET substrate, counter-screen for ADAM10 exosite inhibitor project, dose response (AID 743253)
Sequence of Disintegrin and metalloproteinase domain-containing protein 17 (P78536 whole entry, the tested form may be a part): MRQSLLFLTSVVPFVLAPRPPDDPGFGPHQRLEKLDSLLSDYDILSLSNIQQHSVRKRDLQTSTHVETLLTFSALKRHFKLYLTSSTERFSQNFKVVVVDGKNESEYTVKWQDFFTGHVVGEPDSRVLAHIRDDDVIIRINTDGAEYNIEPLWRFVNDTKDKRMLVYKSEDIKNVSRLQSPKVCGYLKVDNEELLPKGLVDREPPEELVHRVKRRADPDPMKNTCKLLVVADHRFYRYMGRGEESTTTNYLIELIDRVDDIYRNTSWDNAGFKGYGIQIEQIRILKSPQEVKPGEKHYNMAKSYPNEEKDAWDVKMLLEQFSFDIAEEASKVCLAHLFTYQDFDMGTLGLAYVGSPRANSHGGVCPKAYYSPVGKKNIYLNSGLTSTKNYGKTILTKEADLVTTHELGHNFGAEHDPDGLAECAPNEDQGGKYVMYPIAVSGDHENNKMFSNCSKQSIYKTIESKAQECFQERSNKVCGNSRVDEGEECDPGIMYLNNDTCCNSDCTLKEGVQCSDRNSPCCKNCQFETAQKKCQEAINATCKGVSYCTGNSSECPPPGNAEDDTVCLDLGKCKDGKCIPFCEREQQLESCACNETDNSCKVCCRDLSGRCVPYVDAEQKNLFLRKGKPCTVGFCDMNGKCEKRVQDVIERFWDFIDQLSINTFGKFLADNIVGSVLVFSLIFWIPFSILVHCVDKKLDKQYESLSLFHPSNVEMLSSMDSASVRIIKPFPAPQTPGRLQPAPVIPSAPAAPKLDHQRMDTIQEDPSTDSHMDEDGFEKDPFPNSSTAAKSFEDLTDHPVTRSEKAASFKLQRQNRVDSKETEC

[23] = Fluorescence-based cell-based high throughput dose response assay for inhibitors of the interaction of nucleotide-binding oligomerization domain containing 2 (NOD2) and the receptor-interacting serine-threonine kinase 2 (RIPK2).; assay type: functional; settings: Homo sapiens
Beta Lactamase = Beta Lactamase (Pseudomonas aeruginosa, UniProt Q932Y6); assay: BLA reporter interference, concentration series – BLA reporter cells, FRET fluorescence, artefact control for NOD2-RIPK2 interaction inhibitor project, dose response (AID 651552); assay type: functional, cell-based
Sequence of Beta Lactamase (Q932Y6 whole entry): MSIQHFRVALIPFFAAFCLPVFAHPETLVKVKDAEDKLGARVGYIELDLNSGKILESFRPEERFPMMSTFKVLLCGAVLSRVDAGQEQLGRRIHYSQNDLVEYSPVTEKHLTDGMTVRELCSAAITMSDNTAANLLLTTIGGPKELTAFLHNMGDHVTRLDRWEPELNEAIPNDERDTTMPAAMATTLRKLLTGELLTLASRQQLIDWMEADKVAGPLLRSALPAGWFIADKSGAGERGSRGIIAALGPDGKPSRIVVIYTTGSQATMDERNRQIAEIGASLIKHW

CC(C)c1nc(SCC(=O)Nc2cccc(C(F)(F)F)c2)c2c(=O)n(C)c(=O)n(C)c2n1
AC50 [1]: > 70 µM (inactive) | AC50 [2]: 13.2 µM (active) | AC50 [3]: 3.53 µM (active) | AC50 [4]: 2.54 µM (active) | AC50 [5]: 2.7 µM (active)

Nc1nc(COc2ccccc2C=O)nc(Nc2ccccc2)n1
IC50 [6]: 36.7 µM (active) | IC50 [7]: 52.1 µM (active)

COCCN1Cc2cc(O)n3c(nc4ccccc43)c2C1=N
EC50 (Kallikrein-7): > 69.5 µM (inactive)

O=C(NC12CC3CC(CC(C3)C1)C2)c1ccc(-c2ccccc2Cl)o1
AC50 [8]: 80.2 µM (active) | AC50 [9]: 3.35 µM (active)

CCOC(=O)c1cnn2c(C(F)(F)F)cc(-c3cn(C)nc3C)nc12
EC50 (Kallikrein-7): 33.2 µM (inactive)

CCOC(=O)c1cnc(-n2nc(C)cc2C)nc1NC1CCCC1
AC50 (INS1): 2.73 µM (active) | AC50 [1]: 8.6 µM (active) | IC50 [10]: 7.91 µM (active) | AC50 [2]: 7.1 µM (active) | EC50 (Streptococcus): 5.64 µM (active) | EC50 [11]: 2.69 µM (active) | AC50 [5]: 4.4 µM (active)

NC(=O)c1sc2nc3c(c(-c4ccccc4)c2c1N)CCC3
AC50 [12]: 10.2 µM (active) | AC50 [13]: 0.736 µM (active) | EC50 [14]: 16.6 µM (active) | EC50 [15]: 25.6 µM (active) | IC50 (Phospholipase A2): 8.38 µM (active) | AC50 (HEK293): 14.6 µM (active) | IC50 (Cysteine protease ATG4B): 12.3 µM (active) | IC50 (Interleukin-8): 15.3 µM (inactive) | EC50 [16]: 6.39 µM (active) | AC50 [17]: 1.55 µM (active) | AC50 [18]: 1.87 µM (active)

Cc1cc2nc(-c3cccnc3SCC(=O)NCc3ccco3)[nH]c2cc1C
EC50 [19]: > 67.6 µM (inactive)

CCOC(=O)c1cnc2c(C)c(Cl)ccc2c1NCCCN1CCOCC1
AC50 [20]: 8.62 µM (active)

Cc1ccc(S(=O)(=O)N2CCC(=O)N2)cc1
IC50 [21]: > 69.6 µM (inactive) | IC50 [22]: > 69.6 µM (inactive)

O=C1N/C(=C/c2ccc(N3CCOCC3)o2)C(=O)N1c1cccc(Cl)c1
IC50 [23]: 7.65 µM (active) | IC50 (Beta Lactamase): 21.3 µM (inactive)

Cc1ccc(Nc2ncccc2C(N)=O)cc1[N+](=O)[O-]
EC50 [19]: > 67.6 µM (inactive)
